In brackets after ≈: the same amount, converted by molar mass. Activity calls are given as the source filed them. The rule behind the calls is not given here.
Experiments:
[1] = test system: Staphylococcus aureus; assay: Antibacterial activity against Staphylococcus aureus at 200 ug/disk after 24 hrs by disk diffusion method; type: functional; conditions: for zone of inhibition at 200 µg/disc: read-out: DIZ
[2] = test system: Staphylococcus aureus; assay: Antibacterial activity against Staphylococcus aureus after 24 hrs by microdilution susceptibility method; type: functional
[3] = test system: Bacillus subtilis; assay: Antibacterial activity against Bacillus subtilis at 200 ug/disk after 24 hrs by disk diffusion method; type: functional; conditions: for zone of inhibition at 200 µg/disc: read-out: DIZ
[4] = test system: Bacillus subtilis; assay: Antibacterial activity against Bacillus subtilis after 24 hrs by microdilution susceptibility method; type: functional
[5] = test system: Micrococcus luteus; assay: Antibacterial activity against Micrococcus luteus at 200 ug/disk after 24 hrs by disk diffusion method; type: functional; conditions: for zone of inhibition at 200 µg/disc: Micrococcus luteus, 24 h, read-out: DIZ
[6] = test system: Micrococcus luteus; assay: Antibacterial activity against Micrococcus luteus after 24 hrs by microdilution susceptibility method; type: functional
[7] = test system: Escherichia coli; assay: Antibacterial activity against Escherichia coli at 200 ug/disk after 24 hrs by disk diffusion method; type: functional; conditions: for zone of inhibition at 200 µg/disc: read-out: DIZ
[8] = test system: Escherichia coli; assay: Antibacterial activity against Escherichia coli after 24 hrs by microdilution susceptibility method; type: functional
[9] = test system: Pseudomonas aeruginosa; assay: Antibacterial activity against Pseudomonas aeruginosa at 200 ug/disk after 24 hrs by disk diffusion method; type: functional; conditions: for zone of inhibition at 200 µg/disc: read-out: DIZ
[10] = test system: Candida albicans; assay: Antifungal activity against Candida albicans at 200 ug/disk after 48 hrs by disk diffusion method; type: functional, organism-based
[11] = test system: Candida albicans; assay: Antifungal activity against Candida albicans after 48 hrs by microdilution susceptibility method; type: functional, organism-based
[12] = biological target: T1, Dihydrofolate reductase (Bos taurus, UniProt P00376)
T1 sequence (P00376 whole entry): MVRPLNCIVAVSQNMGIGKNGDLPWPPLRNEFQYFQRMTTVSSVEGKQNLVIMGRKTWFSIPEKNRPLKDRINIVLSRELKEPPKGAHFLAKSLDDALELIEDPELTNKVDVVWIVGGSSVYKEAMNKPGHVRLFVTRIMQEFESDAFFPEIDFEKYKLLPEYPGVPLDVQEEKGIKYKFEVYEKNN
Description: Inhibition of bovine DHFR after 2 mins

[13] = test system: Staphylococcus aureus; assay: Antibacterial activity against Staphylococcus aureus at 100 ug/disk after 24 hrs by disk diffusion method; type: functional
[14] = test system: Bacillus subtilis; assay: Antibacterial activity against Bacillus subtilis at 100 ug/disk after 24 hrs by disk diffusion method; type: functional
[15] = biological target: T2, Dihydrofolate reductase (Homo sapiens, UniProt P00374)
T2 sequence (P00374 whole entry): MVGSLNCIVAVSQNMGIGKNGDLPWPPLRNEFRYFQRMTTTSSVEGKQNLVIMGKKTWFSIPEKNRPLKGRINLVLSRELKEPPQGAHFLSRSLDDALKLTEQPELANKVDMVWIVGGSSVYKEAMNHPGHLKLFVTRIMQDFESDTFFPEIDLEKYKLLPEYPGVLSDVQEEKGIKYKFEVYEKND
Description: Inhibition of human DHFR after 2 mins

[16] = Antitumor activity against human leukemia cells after 48 hrs by SRB assay; type: functional; conditions: Leukemia cell
[17] = Antitumor activity against human non small cell lung cancer cells after 48 hrs by SRB assay; type: functional; conditions: Cancer cell lines
[18] = Antitumor activity against human colon cancer cells after 48 hrs by SRB assay; type: functional; conditions: Cancer cell lines
[19] = Antitumor activity against human CNS cancer cells after 48 hrs by SRB assay; type: functional; conditions: Cancer cell lines
[20] = Antitumor activity against human melanoma cells after 48 hrs by SRB assay; type: functional; conditions: Melanoma cell
[21] = Antitumor activity against human ovarian cancer cells after 48 hrs by SRB assay; type: functional; conditions: Cancer cell lines
[22] = Antitumor activity against human renal cancer cells after 48 hrs by SRB assay; type: functional; conditions: Cancer cell lines
[23] = Antitumor activity against human prostate cancer cells after 48 hrs by SRB assay; type: functional; conditions: Cancer cell lines
[24] = Antitumor activity against human breast cancer cells after 48 hrs by SRB assay; type: functional; conditions: Cancer cell lines

Row | Compound | zone of inhibition at 200 µg/disc [1] | MIC [2] | zone of inhibition at 200 µg/disc [3] | MIC [4] | zone of inhibition at 200 µg/disc [7] | MIC [8] | diameter of the inhibition zone (DIZ) [9] | Activity [10] | Activity [11] | IC50 [12] | IC50 [15] | diameter of the inhibition zone (DIZ) [1] | diameter of the inhibition zone (DIZ) [3] | diameter of the inhibition zone (DIZ) [5] | further results
1 | Nc1ccc2ncn(Cc3ccccc3)c(=O)c2c1 | 24 mm | 2 µg/mL (≈ 7.96 µM) | 28 mm | 2 µg/mL (≈ 7.96 µM) | 22 mm | 4 µg/mL (≈ 15.9 µM) | inactive | inactive | inactive | 40 µM | – | – | – | – | zone of inhibition at 200 µg/disc [5]: 20 mm; MIC [6]: 4 µg/mL (≈ 15.9 µM)
2 | CC(=O)NS(=O)(=O)c1ccc(N)cc1 [SULFACETAMIDE] | – | 1 µg/mL (≈ 4.67 µM) | 25 mm | 2 µg/mL (≈ 9.34 µM) | – | – | – | – | – | 22 µM | 18 µM | – | – | – | zone of inhibition at 100 µg/disc ([13]; read-out: DIZ): 28 mm; zone of inhibition at 100 µg/disc ([14]; read-out: DIZ): 25 mm
3 | Cc1ccc2nc(S)n(Cc3ccccc3)c(=O)c2c1 | – | – | 18 mm | 4 µg/mL (≈ 14.2 µM) | 17 mm | 4 µg/mL (≈ 14.2 µM) | – | inactive | inactive | 30 µM | – | inactive | – | – | zone of inhibition at 200 µg/disc [5]: 14 mm; zone of inhibition at 200 µg/disc [9]: 15 mm
4 | O=c1[nH]cc(F)c(=O)[nH]1 [FLUOROURACIL] | – | – | – | – | – | – | – | – | – | – | – | – | – | – | GI50 [16]: 15.1 µM; TGI [16]: > 100 µM; GI50 [17]: > 100 µM; TGI [17]: > 100 µM; GI50 [18]: 8.4 µM; TGI [18]: > 100 µM; GI50 [19]: 72.1 µM; TGI [19]: > 100 µM; GI50 [20]: 70.6 µM; TGI [20]: > 100 µM; GI50 [21]: 61.4 µM; TGI [21]: > 100 µM; GI50 [22]: 45.6 µM; TGI [22]: > 100 µM; GI50 [23]: 22.7 µM; TGI [23]: > 100 µM; GI50 [24]: 76.4 µM; TGI [24]: > 100 µM
5 | CCSc1nc2ccc([N+](=O)[O-])cc2c(=O)n1Cc1ccccc1 | – | – | – | – | 20 mm | 8 µg/mL (≈ 23.4 µM) | – | inactive | inactive | 10 µM | – | inactive | inactive | inactive | zone of inhibition at 200 µg/disc [9]: 15 mm
6 | C=CCSc1nc2ccc(NC(=O)/C=C/c3ccccc3)cc2c(=O)n1Cc1ccccc1 | 16 mm | 8 µg/mL (≈ 17.6 µM) | 18 mm | 8 µg/mL (≈ 17.6 µM) | 18 mm | 8 µg/mL (≈ 17.6 µM) | inactive | inactive | inactive | 0.7 µM | 0.5 µM | – | – | 18 mm | MIC [6]: 8 µg/mL (≈ 17.6 µM)
7 | C=CCSc1nc2ccc(N)cc2c(=O)n1Cc1ccccc1 | – | – | – | – | – | – | inactive | inactive | inactive | 8 µM | 5 µM | inactive | inactive | inactive | diameter of the inhibition zone (DIZ) [7]: inactive
8 | CSc1nc2ccc(NC/C=C/c3ccccc3)cc2c(=O)n1Cc1ccccc1 | – | – | – | – | 15 mm | – | inactive | inactive | inactive | 0.5 µM | 2 µM | inactive | inactive | inactive | –
9 | O=c1c2cc([N+](=O)[O-])ccc2nc(S)n1Cc1ccccc1 | 20 mm | 4 µg/mL (≈ 12.8 µM) | 18 mm | 8 µg/mL (≈ 25.5 µM) | – | – | inactive | inactive | inactive | 15 µM | – | – | – | – | zone of inhibition at 200 µg/disc [5]: 16 mm; MIC [6]: 16 µg/mL (≈ 51.1 µM); diameter of the inhibition zone (DIZ) [7]: inactive
10 | C=CCSc1nc2ccc([N+](=O)[O-])cc2c(=O)n1Cc1ccccc1 | – | – | – | – | – | – | inactive | inactive | inactive | 3 µM | 2 µM | inactive | inactive | inactive | diameter of the inhibition zone (DIZ) [7]: inactive
11 | CSc1nc2ccc(N(C/C=C/c3ccccc3)C/C=C/c3ccccc3)cc2c(=O)n1Cc1ccccc1 | – | – | 18 mm | 8 µg/mL (≈ 15.1 µM) | 16 mm | 16 µg/mL (≈ 30.2 µM) | inactive | inactive | inactive | 0.6 µM | 0.8 µM | inactive | – | inactive | –
12 | GENTAMICIN | – | – | – | – | – | – | – | – | – | – | – | – | – | – | inhibition zone (IZ) [3]: 19 mm; inhibition zone (IZ) [13]: 21 mm; inhibition zone (IZ) [14]: 19 mm
13 | C=CCSc1nc2ccc(NC/C=C/c3ccccc3)cc2c(=O)n1Cc1ccccc1 | 19 mm | 8 µg/mL (≈ 18.2 µM) | 20 mm | 4 µg/mL (≈ 9.1 µM) | 18 mm | 8 µg/mL (≈ 18.2 µM) | inactive | inactive | inactive | 5 µM | 3 µM | – | – | – | zone of inhibition at 200 µg/disc [5]: 16 mm; MIC [6]: 16 µg/mL (≈ 36.4 µM)
14 | Cc1ccc2nc(SC/C=C/c3ccccc3)n(Cc3ccccc3)c(=O)c2c1 | – | – | – | – | – | – | inactive | inactive | inactive | 0.5 µM | 1 µM | inactive | inactive | inactive | diameter of the inhibition zone (DIZ) [7]: inactive
15 | C=CCSc1nc2ccc(N(C/C=C/c3ccccc3)C/C=C/c3ccccc3)cc2c(=O)n1Cc1ccccc1 | 22 mm | 4 µg/mL (≈ 7.2 µM) | 20 mm | 4 µg/mL (≈ 7.2 µM) | 16 mm | 16 µg/mL (≈ 28.8 µM) | inactive | inactive | inactive | 0.5 µM | 0.7 µM | – | – | inactive | –

Reference: ChEMBL document CHEMBL1156232, “Non-classical antifolates. Part 2: synthesis, biological evaluation, and molecular modeling study of some new 2,6-substituted-quinazolin-4-ones” (Bioorg Med Chem, 2010)
